The results in this text go back to the Bradley open melting point set (2014).

SMILES strings stand for the structures. Several values for one entry are separate records, joined by “and”; a condition that tells them apart may be missing. Equal values may be shown once.

As usually defined, the melting point is the temperature of the solid-liquid transition. Regarding `CC1(C)[C@H]2CC[C@](C)(C2)[C@H]1O` [(1R)-endo-fenchyl alcohol], the melting point was 41 °C.

In the case of `COC(=O)c1ccccc1C(=O)OC` [dimethyl phthalate], the melting point came to 5 °C. As for `Cc1nn(C)c(C)c1C=O` [1,3,5-trimethyl-1h-pyrazole-4-carboxaldehyde], the figure is 82 °C; as for `Nc1ccc(C(O)(C(F)(F)F)C(F)(F)F)cc1` [2-(4-aminophenyl)-1,1,1,3,3,3-hexafluoro-2-propanol], 150 °C; as for `OB(O)c1cccc(OC(F)(F)F)c1` [3-(trifluoromethoxy)benzeneboronic acid], 80 °C. Regarding `C[C@]12CCC(=O)C=C1CC[C@@H]1[C@@H]2CC[C@]2(C)C(=O)CC[C@@]12O` [14-hydroxyandrost-4-ene-3,17-dione], the melting point stood at 258 °C. For `O=C(O)c1ccc(F)cc1O` [4-fluorosalicylic acid], the melting point was 188 °C. `O=C(O)Cc1ccc(O)cc1` [4-hydroxyphenylacetic acid] had a melting point of 152 °C.

As for `CC1=C(C#N)c2ccccc2C1` [2-methyl-1H-indene-3-carbonitrile], the melting point is 70 °C. Compound `O=C=Nc1ccc([N+](=O)[O-])cc1` [4-nitrophenyl isocyanate] came in with a melting point of 58 °C. As for `Brc1ccc(Br)c(Br)c1` [1,2,4-Tribromobenzene], the figure is 44 °C; as for `O=[N+]([O-])c1cccc(I)c1` [1-iodo-3-nitrobenzene], 37 °C. `Cc1ccc[nH]c1=O` [3-methyl-2-pyridone]: the melting point is 140 °C.

`Cc1ccccc1Cc1ccccc1` [2-methyldiphenylmethane] showed a melting point of 7 °C.

Regarding `CCCC` [butane], the melting point was -138 °C and -137 °C.

As to `CC(C)Cc1ccc(C(C)C(=O)O)cc1` (centres undefined) [Ibuprofen], the melting point was 76 °C.

`O=C1C=CCCC1` [2-cyclohexen-1-one] displayed a melting point of -53 °C. The result for `Cc1ccc(B(O)O)c(Cl)c1` [2-chloro-4-methylbenzeneboronic acid] reads 200 °C.

For the compound `Cc1ccc(C=O)cc1` [p-tolualdehyde], the melting point is -6 °C. The result for `C/C=C/c1ccc(OC)cc1` [trans-anethole] reads 23 °C. As for `COc1cc(CCC(C)=O)ccc1O` [4-(4-hydroxy-3-methoxyphenyl)-2-butanone], the figure is 41 °C; as for `CCCCCCCCCC#N` [decanonitrile], -15 °C; as for `COc1ccc(C(=O)C=C(C)c2ccc(OC)cc2)cc1` [trans-4,4'-Dimethoxy-beta-methylchalcone], 87 °C. `O=[N+]([O-])c1ccc(N2CCCCC2)cc1` [1-(4-nitrophenyl)piperidine] had a melting point of 104 °C. The result for `COc1cc(CO)ccc1O` [4-hydroxy-3-methoxybenzyl alcohol] reads 114 °C. `C=CCC1(CC(C)C)C(=O)NC(=O)NC1=O` [butalbital] gave a melting point of 140 °C. As for `C[C@@H](Cl)CCl` [1,2-Dichloro-Propane], the figure is -100 °C; as for `OC[C@H]1O[C@](O)(CO)[C@@H](O)[C@@H]1O` [D-fructose], 108 °C; as for `CC(CCc1ccccc1)NCC(O)c1ccc(O)c(C(N)=O)c1` (centres undefined) [Labetalol], 196 °C. `c1ccc2nccnc2c1` [quinoxaline] had a melting point of 30 °C. `CC(=O)O[C@@H]1CCC2(C)C(CCC3C2CCC2(C)C3CC[C@]2(O)/C=C/c2ccccc2)C1` (some centres undefined) gave a melting point of 162 °C. The compound `C[Si](C)(C)c1c2c(cc3c1-c1ccccc1OC3)CCCC2=O` registered a melting point of 159 °C. On to `CC(C)(C)CS` [2,2-dimethyl-1-propanethiol], for which the melting point is -67 °C. `CCOC(=O)CCl` [ethyl chloroacetate] registered a melting point of -26 °C. The result for `CCc1ccc(C)nc1` [5-ethyl-2-methylpyridine] reads -71 °C. `Cc1cc(C)nc(NS(=O)(=O)c2ccc(N)cc2)n1` [sulfamethazine] gave a melting point of 176 °C. As to `CCC1(CC)C(=O)NC(=O)NC1=O` [Barbital], the melting point stood at 190 °C. `c1ccc2c(c1)Cc1ccccc1-2` [fluorene] returned a melting point of 116 °C. Regarding `Oc1ccc(O)c(Cl)c1` [2-chlorohydroquinone], the melting point stood at 102 °C. With `NCCCCNCCCN` [spermidine], the melting point was found to be 24 °C. Compound `NC(=O)N1c2ccccc2C=Cc2ccccc21` [carbamazepine] showed a melting point of 190 °C. `CC1=CC(=O)CC(C)(C)C1` [3,5,5-Trimethylcyclohex-2-en-1-one] came in with a melting point of -8 °C. As to `O=C(O)Cc1cccc([N+](=O)[O-])c1` [3-nitrophenylacetic acid], the melting point is 119 °C.

As for `Cc1ccc(C)c(-c2cc(C)ccc2C)c1` [2,2',5,5'-tetramethylbiphenyl], the melting point was determined as 50 °C.

`Cc1ccccc1/N=N/c1ccc(/N=N/c2c(O)ccc3ccccc23)c(C)c1`: the melting point was 199 °C. In turn, `O[C@H]1O[C@H](COCc2ccccc2)[C@@H](OCc2ccccc2)[C@H](OCc2ccccc2)[C@H]1OCc1ccccc1` [2,3,4,6-tetra-o-benzyl-alpha-D-glucopyranose] returned a melting point of 151 °C. Turning to `COC(=O)c1ccccc1N` [methyl anthranilate], the melting point was 24 °C. For the compound `Clc1ccc(Cl)cc1` [1,4-dichlorobenzene], the melting point is 53 °C and 55 °C. Compound `CC(=O)Nc1ccc(-c2ccc3nn(-c4ccccc4)nc3c2)cc1` [N-[4-(2-phenyl-2H-benzotriazol-5-yl)phenyl]acetamide] yielded a melting point of 173 °C. `CN(C)c1ccncc1` [4-(dimethylamino)pyridine] returned a melting point of 112 °C. In turn, `CCOc1ccc(NC(=O)CN)cc1` [phenocoll] gave a melting point of 101 °C. Regarding `CCCCc1ccc(C(=O)O)cc1` [4-butylbenzoic_acid], the melting point was 100 °C. With `CCCCC(CC)C(=O)O` (centres undefined) [2-ethylhexanoic acid], the melting point was -59 °C.

`Clc1ccc(cc1)NC3=CC4=Nc2ccccc2N(C4=C/C3=NC(C)C)c5ccc(Cl)cc5` [clofazimine] came in with a melting point of 211 °C. The compound `C[C@H]1C[C@H]2[C@@H]3CCC4=CC(=O)C=C[C@]4(C)[C@@]3(F)[C@@H](O)C[C@]2(C)[C@@]1(O)C(=O)CO` [betamethasone] had a melting point of 232 °C. The compound `CSCC[C@@H](NC(=O)OC(C)(C)C)C(=O)O` [N-boc-D-methionine] registered a melting point of 49 °C. `COP(=S)(OC)Oc1ccc([N+](=O)[O-])cc1` [O,O-Dimethyl O-(4-nitrophenyl) phosphorothioate] showed a melting point of 36 °C. `O=[N+]([O-])c1ccc(Cl)cc1` [4-chloronitrobenzene] yielded a melting point of 83.5 °C. On to `CC(=O)/C(=N/Nc1ccc(Cl)cc1)C(=O)C(F)(F)F`, for which the melting point was 125 °C.

Turning to `OCC=Cc1ccccc1` [cinnamyl_alcohol], the melting point was 34 °C. Compound `ClCC(Cl)CCl` [1,2,3-trichloropropane] returned a melting point of -14 °C. Regarding `O=C(Nc1ccc([N+](=O)[O-])cc1[N+](=O)[O-])C(C(F)(F)F)C(F)(F)F`, the melting point was 121 °C.

`O=C(O)c1ccc(-c2ccc(O)cc2)cc1` [4'-hydroxybiphenyl-4-carboxylic acid] gave a melting point of 294 °C. In turn, `OB(O)c1ccc(F)c(F)c1F` [2,3,4-trifluorobenzeneboronic acid] gave a melting point of 203 °C. With `C/C=C/C=C/CO` [trans,trans-2,4-hexadien-1-ol], the melting point was determined as 31 °C. `CCCC1C(=O)N2C(N(C)C)=Nc3ccc(C)cc3N2C1=O` (centres undefined) [apazone] returned a melting point of 228 °C.

Take `CCc1c(C)[nH]c2ccc(N(C)C)cc12` [medmain]: the melting point amounted to 100 °C. As for `Nc1ccc2ccc3cccc4ccc1c2c34` [aminopyrene], the melting point came out at 116 °C.

`Nc1cc(N2CCCCC2)nc(N)[n+]1[O-]` [minoxidil] returned a melting point of 248 °C. `CC(=O)c1ccccn1` [2-acetylpyridine] yielded a melting point of 9 °C. `CNC(=O)Oc1cccc2ccccc12` [carbaryl] displayed a melting point of 142 °C. The result for `O=C(O)C(O)C(O)C(=O)O` (centres undefined) [tartaric acid] reads 147 °C; that for `COc1ccccc1-c1ccc(C=C(C(C)=O)C(C)=O)o1` [3-{[5-(2-Methoxyphenyl)-2-furyl]methylene}pentane-2,4-dione], 146 °C; that for `CC(=O)Nc1ccccc1O` [2-acetamidophenol], 208 °C. Consider `COc1ccc2oc(-c3cc(OC)c(OC)cc3OC)c(O)c(=O)c2c1` [3-hydroxy-2',4',5',6-tetramethoxyflavone], for which the melting point is 202 °C. Turning to `COc1ccc(-c2csc(C(C#N)=Cc3ccc(O)cc3)n2)cc1`, the melting point came to 186 °C. The result for `BrCCCCCCBr` [1,6-Dibromohexane] reads 2 °C; that for `C1=C(c2ccccc2)Cc2ccccc21` [2-Phenylindene], 167 °C; that for `O=[N+]([O-])c1cccc(CO)c1` [3-nitrobenzyl alcohol], 31 °C. Consider `COC1CC(C(=O)Cl)CC(OC)C1OC` (centres undefined) [3,4,5-trimethoxycyclohexanecarbonyl chloride], for which the melting point came to 82 °C. As to `CCCNCCC` [N-Propylpropan-1-amine], the melting point is -40 °C.

Consider `CC(=O)OCC(COC(C)=O)OC(C)=O` [Propane-1,2,3-triyl triacetate], for which the melting point is 3 °C. As for `O=C(O)C(O)c1cc(F)cc(F)c1` (centres undefined) [3,5-difluoromandelic acid], the figure is 136 °C; as for `c1ccc2[nH]cnc2c1` [benzimidazole], 170 °C and 172 °C; as for `O=S(=O)(O)CCCN1CCOCC1` [3-(Morpholin-4-yl)propane-1-sulfonic acid], 277 °C. The result for `CCCCOC(=O)CCC` [N-butyl butyrate] reads -92 °C; that for `COc1ccccc1C=O` [o-anisaldehyde], 38 °C. The result for `CCN(CC)CC` [triethylamine] reads -115 °C; that for `c1ccc(Cc2ccccc2)cc1` [diphenylmethane], 25 °C.
